{"source": "patent US20130078718A1", "about": "“CONVERSION OF VASCULAR ENDOTHELIAL CELLS INTO MULTIPOTENT STEM-LIKE CELLS” (PRESIDENT AND FELLOWS OF HARVARD COLLEGE, priority 2010, published 2013)", "key": {"[1]": {"system": "HUVECs and HCMECs", "assay": "In vivo multipotency: polylactic acid scaffolds with pre-treated endothelial cells implanted into nude mice", "set-up": "species or system immunodeficient nude mice", "conditions": "for co-expression of Qtracker label with osteocalcin, SOX9 or adiponectin in implants (immunohistochemistry): cells pre-labeled with quantum dots, pre-treated, implanted 6 weeks; for bone, cartilage or fat products in implanted scaffolds (alizarin red, alcian blue, oil red O): cells pre-treated, differentiation medium injected locally every 72 h for 6 weeks", "experimental": "Cells were grown in StemPro osteogenic, chondrogenic, or adipogenic culture medium (Invitrogen). Alkaline phosphatase staining was performed using the alkaline phosphatase kit and protocol (Sigma-Aldrich) on cultures grown in osteogenic medium for 7 d to detect osteoblasts. Alizarin Red (Sigma-Aldrich) staining was performed for 30 min on cultures grown in osteogenic medium for 21 d to detect matrix calcification. Alcian Blue (Sigma) staining was used to stain chondrocyte proteoglycans for 5 minutes in cultures grown in chondrogenic medium for 14 d. Oil Red O (Sigma-Aldrich) staining was performed for 15 min on cultures grown in adipogenic medium for 7 d. For in vivo analysis, endothelial cells were labeled with fluorescent quantum dots using the Qtracker 525 Cell Labeling Kit (Invitrogen). Cells were treated in culture to induce EndMT then absorbed into OPLA polylactic acid scaffolds (BD Biosciences). Scaffolds were surgically implanted subcutaneously into immunodeficient nude mice (Nu/Nu strain; Charles River Laboratories). Local injection of StemPro differentiation medium (described above) was performed in the area of the implants every 72 h for 6 weeks. Scaffolds were cryosectioned and stained with Alizarin Red, Alcian Blue, or Oil Red O as described above. All procedures were reviewed and approved by the Institutional Animal Care and Use Committee at Harvard Medical School."}, "[2]": {"system": "human cutaneous microvascular endothelial cells (HCMEC)", "assay": "Differentiation into myocytes, cardiomyocytes and neurons (immunoblotting)", "format": "cell-based", "conditions": "10 ng/ml, 48 hours, then myogenic, cardiomyogenic or neurogenic medium 14 days", "experimental": "Cardiomyogenic medium was purchased from Millipore Inc., (SCM-102).\nMyogenic medium consisted of human endothelial serum-free medium supplemented with 5% horse serum, 0.1 μM dexamethasone, and 50 μM hydrocortisone (previously described by Gang et al, 2004).\nNeurogenic medium consisted human endothelial serum-free medium supplemented with 100 ng/ml bFGF (previously described by Jiang et al., 2002). Endothelial cells converted into mesenchymal stem-like cells by treatment with 10 ng/ml TGF-β2 for 48 hours were plated on fibronectin-coated polystyrene wells in the neurogenic medium."}}}
{"substance": "TGF-β2: Recombinant TGF-β2 protein (R&D Systems), ALK2 activating ligand, used at 10 ng/mL", "values": [{"measurement": "co-expression of Qtracker label with osteocalcin, SOX9 or adiponectin in implants (immunohistochemistry)", "setting": "[1]", "value": "co-expression of the Qtracker with osteocalcin, SOX9, or adiponectin"}, {"measurement": "bone, cartilage or fat products in implanted scaffolds (alizarin red, alcian blue, oil red O)", "setting": "[1]", "value": "formation of bone, cartilage, or fat products"}, {"measurement": "expression of MyoD1, cardiac troponin I or neurofilament-L (immunoblotting)", "setting": "[2]", "value": "did express these markers"}]}
{"substance": "BMP4: Recombinant BMP4 protein (R&D Systems), ALK2 activating ligand, used at 10 ng/mL", "values": [{"measurement": "co-expression of Qtracker label with osteocalcin, SOX9 or adiponectin in implants (immunohistochemistry)", "setting": "[1]", "value": "co-expression of the Qtracker with osteocalcin, SOX9, or adiponectin"}, {"measurement": "bone, cartilage or fat products in implanted scaffolds (alizarin red, alcian blue, oil red O)", "setting": "[1]", "value": "formation of bone, cartilage, or fat products"}]}
